Measured values reported in patent US6562839B1, “6-substituted heteroquinolinecarboxylic acid derivatives and addition salts thereof and processes for the preparation of both” (Kyorin Pharmaceutical Co., Ltd., priority 1999, dated 2003).
pKi: −log10 of the molar value. Counter-ions that a name gives are not always drawn.

tested on: not given; assay: not given; details: not given

Row | melting point | SMILES
1 | 263 to 265 °C (dec.) | O=C(Nc1cccc(C(=O)O)c1)OCc1cn(-c2cc3cc(C(=O)O)c(=O)[nH]c3cc2Cl)cn1 [Example 43, 6-((((3-Carboxyphenyl)carbamoyloxy)methyl)imidazole-1-yl)-7-chloro-1,2-dihydro-2-oxoquinoline-3-carboxylic acid]
2 | 226 to 228 °C | O=C(Nc1ccccc1F)OCc1cn(-c2cc3cc(C(=O)O)c(=O)[nH]c3cc2[N+](=O)[O-])cn1 (as salt: HCl) [Example 6]
3 | 249 to 251 °C | O=C(Nc1ccc(C(=O)O)cc1)OCc1cn(-c2cc3cc(C(=O)O)c(=O)[nH]c3cc2Cl)cn1 [Example 44, 6-((((4-Carboxyphenyl)carbamoyloxy)methyl)imidazole-1-yl)-7-chloro-1,2-dihydro-2-oxoquinoline-3-carboxylic acid]
4 | 218 to 220 °C | O=C(Nc1ccc(C(=O)O)cc1)OCc1cn(-c2cc3cc(C(=O)O)c(=O)[nH]c3cc2C(F)(F)F)cn1 [Example 19, 6-(4-(((4-Carboxyphenyl)carbamoyloxy)methyl)imidazole-1-yl)-1,2-dihydro-2-oxo-7-trifluoromethylquinoline-3-carboxylic acid]
5 | 169 to 171 °C | O=C(NCc1ccccc1)OCc1cn(-c2cc3cc(C(=O)O)c(=O)[nH]c3cc2C(F)(F)F)cn1 [Example 32]
6 | 180 to 182 °C | O=C(Nc1ccccc1)OCc1cn(-c2cc3cc(C(=O)O)c(=O)[nH]c3cc2Cl)cn1 [Example 41, 7-Chloro-1,2-dihydro-2-oxo-6-(4-((phenylcarbamoyloxy)methyl)imidazole-1-yl)quinoline-3-carboxylic acid]
7 | 145 to 147 °C | O=C(Nc1ccccc1Br)OCc1cn(-c2cc3cc(C(=O)O)c(=O)[nH]c3cc2C(F)(F)F)cn1 [Example 25, 6-(4-(((2-Bromophenyl)carbamoyloxy)methyl)imidazole-1-yl)-1,2-dihydro-2-oxo-7-trifluoromethylquinoline-3-carboxylic acid]

target: AMPA receptor; assay: Binding experiment against AMPA receptor ([3H]-AMPA binding, crude synaptic membranes from cerebral cortex); details: rat cerebral cortex crude synaptic membranes; [3H]-AMPA 5 nmol/L, potassium thiocyanate 100 mmol/L, 30 minutes at 0° C.; IC50 converted to Ki
Description: Binding Experiment Against AMPA Receptor
To a crude synaptic membranes preparation prepared from cerebral cortex in rat were added [^3H]-AMPA (final concentration: 5 nmol/L) that binds selectively to AMPA receptors, potassium thiocyanate (final concentration: 100 mmol/L) and testing compound, and the mixture was incubated for 30 minutes at 0° C. After the reaction was stopped by suction filtration, the radioactivity on filter was measured with liquid scintillation counter. The specific binding level of [^3H]-AMPA was determined by subtracting the non-specific binding level in the presence of glutamic acid (0.1 mmol/L) from total binding level. The [^3H]-AMPA binding in the absence of testing compound was put on 100, and the concentration of compound to decrease by 50% (IC50 value) was determined, which was converted to Ki value to calculate the binding capacity of each compound to AMPA receptor (Eur. J. Pharmacol., 1993, 246, 195-204).

Row | pKi | SMILES
8 | 8.09 | O=C(Nc1ccccc1F)OCc1cn(-c2cc3cc(C(=O)O)c(=O)[nH]c3cc2[N+](=O)[O-])cn1 [Example 6]
9 | 7.74 | CCOC(=O)c1ccc(NC(=O)OCc2cn(-c3cc4cc(C(=O)OCC)c(=O)[nH]c4cc3C(F)(F)F)cn2)cc1 [Example 18, Ethyl 1,2-dihydro-6-(4-(((4-ethoxycarbonylphenyl)carbamoyloxy)methyl)imidazole-1-yl)-2-oxo-7-trifluoromethylquinoline-3-carboxylate]
10 | 7.65 | O=C(Nc1ccccc1)OCc1cn(-c2cc3cc(C(=O)O)c(=O)[nH]c3cc2[N+](=O)[O-])cn1 [Example 2, 1,2-Dihydro-7-nitro-2-oxo-6-(4-((phenylcarbamoyloxy)methyl)imidazole-1-yl)quinoline-3-carboxylic acid]
11 | 7.75 | O=C(Nc1cccc(C(=O)O)c1)OCc1cn(-c2cc3cc(C(=O)O)c(=O)[nH]c3cc2[N+](=O)[O-])cn1 [Example 15, 6-(4-(((3-Carboxyphenyl)carbamoyloxy)methyl)imidazole-1-yl)-1,2-dihydro-7-nitro-2-oxoquinoline-3-carboxylic acid]
12 | 7.78 | O=C(Nc1ccc(C(=O)O)cc1)OCc1cn(-c2cc3cc(C(=O)O)c(=O)[nH]c3cc2[N+](=O)[O-])cn1 [Example 16, 6-(4-(((4-Carboxyphenyl)carbamoyloxy)methyl)imidazole-1-yl)-1,2-dihydro-7-nitro-2-oxoquinoline-3-carboxylic acid]
